In ChEMBL document CHEMBL1201862, “PubChem BioAssay data set” (2004):
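Tested at 5 concentrations; 48 h exposure; 96-well plates; endpoints linearly interpolated, else capped at highest concentration. GI50 is the concentration that inhibits growth by half.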 Active and inactive are the calls of the source. Cut-off read from the data, not from the text of the source: active = GI50 up to about 1.1 µM and inactive = higher.

How the values were obtained:
Test in all cases: inhibition of tumour cell growth, NCI panel, 48 h
[1] = tested on: NCI/ADR-RES
[2] = tested on: HCT-116
[3] = tested on: COLO 205
[4] = tested on: SK-MEL-28
[5] = tested on: CAKI-1
[6] = tested on: SK-MEL-5
[7] = tested on: MOLT-4
[8] = tested on: K562
[9] = tested on: A549
[10] = tested on: M14
[11] = tested on: MDA-N
[12] = tested on: RPMI-8226
[13] = tested on: 786-0
[14] = tested on: SNB-19
[15] = tested on: MDA-MB-435
[16] = tested on: SF-268
[17] = tested on: NCI-H226
[18] = tested on: SF-539
[19] = tested on: OVCAR-5
[20] = tested on: EKVX
[21] = tested on: OVCAR-4
[22] = tested on: NCI-H522
[23] = tested on: OVCAR-8
[24] = tested on: UO-31
[25] = tested on: SF-295
[26] = tested on: UACC-257
[27] = tested on: CCRF-CEM
[28] = tested on: PC-3
[29] = tested on: TK-10
[30] = tested on: NCI-H460
[31] = tested on: DU-145
[32] = tested on: OVCAR-3
[33] = tested on: HL-60
[34] = tested on: SNB-75
[35] = tested on: SK-OV-3
[36] = tested on: HCC 2998
[37] = tested on: KM12
[38] = tested on: SN12C
[39] = tested on: LOX IMVI
[40] = tested on: IGROV-1
[41] = tested on: A498
[42] = tested on: HOP-62
[43] = tested on: HT-29
[44] = tested on: SK-MEL-2
[45] = tested on: UACC-62
[46] = tested on: SR
[47] = tested on: ACHN
[48] = tested on: U-251
[49] = tested on: Malme-3M
[50] = tested on: HOP-92
[51] = tested on: T47D
[52] = tested on: SW-620
[53] = tested on: NCI-H23
[54] = tested on: Hs-578T
[55] = tested on: RXF 393
[56] = tested on: BT-549
[57] = tested on: MDA-MB-231
[58] = tested on: MCF7
[59] = tested on: HCT-15

For `O=C1C=CC(=O)C1(Br)Br`, the GI50 [1] was 20.7 µM (inactive), the GI50 [2] was 7.69 µM (inactive) and the GI50 [3] was 10 µM (inactive). For the same compound, the GI50 [4] was 7.24 µM (inactive), the GI50 [5] was 5.11 µM (inactive) and the GI50 [6] was 16.9 µM (inactive). The GI50 [7] was 14.7 µM (inactive), the GI50 [8] was 10.2 µM (inactive) and the GI50 [9] was 13.8 µM (inactive). The GI50 [10] was 18.1 µM (inactive), the GI50 [11] was 11.5 µM (inactive) and the GI50 [12] was 6.64 µM (inactive). For the same compound, the GI50 [13] was 9.18 µM (inactive), the GI50 [14] was 17.1 µM (inactive) and the GI50 [15] was 13.4 µM (inactive). For the same compound, the GI50 [16] was 18.5 µM (inactive), the GI50 [17] was 19 µM (inactive) and the GI50 [18] was 16.4 µM (inactive). The GI50 [19] was 10.7 µM (inactive), the GI50 [20] was 14.5 µM (inactive) and the GI50 [21] was 17.6 µM (inactive). The GI50 [22] was 6.27 µM (inactive), the GI50 [23] was 8.3 µM (inactive) and the GI50 [24] was 6.27 µM (inactive). For the same compound, the GI50 [25] was 17.2 µM (inactive), the GI50 [26] was 16.1 µM (inactive) and the GI50 [27] was 7.55 µM (inactive). For the same compound, the GI50 [28] was 14.6 µM (inactive), the GI50 [29] was 2.67 µM (inactive) and the GI50 [30] was 19.3 µM (inactive). The GI50 [31] was 16 µM (inactive), the GI50 [32] was 12.9 µM (inactive) and the GI50 [33] was 11.4 µM (inactive). The GI50 [34] was 12 µM (inactive), the GI50 [35] was 21 µM (inactive) and the GI50 [36] was 16.2 µM (inactive). For the same compound, the GI50 [37] was 13.1 µM (inactive), the GI50 [38] was 7.96 µM (inactive) and the GI50 [39] was 12.1 µM (inactive). For the same compound, the GI50 [40] was 5.01 µM (inactive), the GI50 [41] was 13.2 µM (inactive) and the GI50 [42] was 17.6 µM (inactive). For the same compound, the GI50 [43] was 7.38 µM (inactive), the GI50 [44] was 12.5 µM (inactive) and the GI50 [45] was 10.8 µM (inactive). The GI50 [46] was 3.42 µM (inactive), the GI50 [47] was 6.75 µM (inactive) and the GI50 [48] was 12.3 µM (inactive). For the same compound, the GI50 [49] was 20 µM (inactive), the GI50 [50] was 16.3 µM (inactive) and the GI50 [51] was 14.8 µM (inactive). The GI50 [52] was 10.1 µM (inactive), the GI50 [53] was 15.5 µM (inactive) and the GI50 [54] was 17.9 µM (inactive). The GI50 [55] was 6.37 µM (inactive), the GI50 [56] was 11.3 µM (inactive) and the GI50 [57] was 8.22 µM (inactive). The GI50 [58] was 11 µM (inactive) and the GI50 [59] was 6.53 µM.
With `Nc1ccc(C(=O)CC(N)C(=O)O)cc1O` (stereo not drawn) the GI50 [1] was > 100 µM (inactive), the GI50 [2] was > 100 µM (inactive) and the GI50 [3] was > 100 µM (inactive). The GI50 [4] was > 100 µM (inactive), the GI50 [5] was > 100 µM (inactive) and the GI50 [6] was > 100 µM (inactive). For the same compound, the GI50 [7] was > 100 µM (inactive), the GI50 [8] was > 100 µM (inactive) and the GI50 [9] was > 100 µM (inactive). For the same compound, the GI50 [10] was > 100 µM (inactive), the GI50 [11] was > 100 µM (inactive) and the GI50 [12] was > 100 µM (inactive). The GI50 [13] was > 100 µM (inactive), the GI50 [14] was > 100 µM (inactive) and the GI50 [15] was > 100 µM (inactive). For the same compound, the GI50 [16] was > 100 µM (inactive), the GI50 [17] was > 100 µM (inactive) and the GI50 [18] was > 100 µM (inactive). The GI50 [19] was > 100 µM (inactive), the GI50 [20] was > 100 µM (inactive) and the GI50 [21] was > 100 µM (inactive). For the same compound, the GI50 [22] was > 100 µM (inactive), the GI50 [23] was > 100 µM (inactive) and the GI50 [24] was > 100 µM (inactive). For the same compound, the GI50 [25] was > 100 µM (inactive), the GI50 [26] was > 100 µM (inactive) and the GI50 [27] was > 100 µM (inactive). For the same compound, the GI50 [28] was > 100 µM (inactive), the GI50 [29] was > 100 µM (inactive) and the GI50 [30] was > 100 µM (inactive). For the same compound, the GI50 [31] was > 100 µM (inactive), the GI50 [32] was > 100 µM (inactive) and the GI50 [33] was > 100 µM (inactive). For the same compound, the GI50 [34] was > 100 µM (inactive), the GI50 [35] was 31.9 µM (inactive) and the GI50 [36] was > 100 µM (inactive). The GI50 [37] was > 100 µM (inactive), the GI50 [38] was > 100 µM (inactive) and the GI50 [39] was > 100 µM (inactive). The GI50 [40] was > 100 µM (inactive), the GI50 [41] was > 100 µM (inactive) and the GI50 [42] was > 100 µM (inactive). The GI50 [43] was > 100 µM (inactive), the GI50 [44] was > 100 µM (inactive) and the GI50 [45] was > 100 µM (inactive). The GI50 [46] was > 100 µM (inactive), the GI50 [47] was > 100 µM (inactive) and the GI50 [48] was > 100 µM (inactive). The GI50 [49] was > 100 µM (inactive), the GI50 [50] was > 100 µM (inactive) and the GI50 [51] was > 100 µM (inactive). The GI50 [52] was > 100 µM (inactive), the GI50 [53] was > 100 µM (inactive) and the GI50 [54] was > 100 µM (inactive). For the same compound, the GI50 [55] was > 100 µM (inactive), the GI50 [56] was > 100 µM (inactive) and the GI50 [57] was > 100 µM (inactive). For the same compound, the GI50 [58] was > 100 µM (inactive) and the GI50 [59] was > 100 µM.
